Data on 16 compounds can be found in patent US12059499B2, “Liposome loading” (PLUMB PHARMACEUTICALS, INC., priority 2015, dated 2024).

For data set [1] the following is noted: partly stated as estimated; cited from earlier work.
For data set [2] the following is noted: cited from earlier work.
A short description of data set [3]: Liposome leakage, sedimentation method. It is filed as physicochemical. On the procedure:
Liposome Leakage, Sedimentation Method. Liposome samples were diluted to 3-5 mL and left on an orbital shaker at 22° C. At specific time points, the liposomes were sedimented in a centrifuge at 300×g for 5 minutes and an aliquot of the clear supernatant was analyzed spectrophotometrically for drug and loading base content. After measurement, the solution was returned to the liposome suspension, which was vortexed and returned to the orbital shaker.
Then, 400 microliters of a pyridinium salt solution (prewarmed to 58° C.) were added to the lipid suspension. The mixture was kept at 58° C. for 5 minutes and then 100 microliters of the pyridinium salt solution were added. […] A total of three washes were performed. […] The samples were subsequently monitored for release of naltrexone using the sedimentation method. Two trials were performed for each condition.

Data set [4] in a line: Leakage of drug from loaded liposomes, Examples 5 to 8 (method not named). The following applies: for leakage of chloroquine from liposomes loaded using this base, compared among three loading bases: adenine triflate, aniline triflate, pyridinium sulfate.
The conditions of data set [5]: cited from earlier work. This is another data set of the same source.
A short description of data set [6]: Liposome leakage, dialysis method. As to conditions: for pyridine leakage from the liposomes: slower after 3 days.
Procedure: A 0.5-mL aliquot of liposome suspension was placed in a section of dialysis tubing tied at one end. The tubing was tied at the other end to form a sealed bag. The bag was placed in 4.5 mL of isotonic NaCl saline solution and placed on an orbital shaker. At specific time points, the dialysis bags were exchanged into fresh isotonic NaCl and the drug and loading base were quantified spectophotometrically in the external dialysis solutions.
For data set [7] the following is noted: administered orally; cited from earlier work.
For data set [8] the following is noted: cited from earlier work. The source holds these as a separate data set.
Where [9] appears, read: 1.5 M pyridinium sulfate liposomes.
The mark [10] stands for this setting: liposomes loaded with this pyridinium salt.

Like-named read-outs stand apart in the source and are kept apart here.

As for `COc1ccccn1` [2-methoxypyridine], the log P (usually a log measure of how a compound divides between an organic and an aqueous phase) in data set [1] was “approximately 1.3”. Also, the “solubility in water” value in data set [2] is recorded as “limited solubility in water”.

For the compound `C1=Cc2cccc(OC[C@H]3CNCCO3)c2C1.O=S(=O)(O)c1ccccc1` [Benzenesulfonate], in data set [3], the “naltrexone release rate compared with sulfate and eprodisate salts” value is “higher release rates”.

With `Cl.c1ccncc1` [Chloride, pyridinium chloride], the “release of naltrexone in about 300 hours” value in data set [3] was 20%.

Consider `CCC(C)O` (stereo not drawn) [Example 2-butanol, 2-butanol], for which the lipophilicity (log P) in data set [1] was 0.683.

As to `O=[N+]([O-])O` [Nitrate], in data set [3], the “release of naltrexone in 500 hours” value is recorded as “over 70%” and the “release of naltrexone in 860 hours” value is recorded as 90%.

Consider `Nc1ncnc2nc[nH]c12` [adenine, 6-aminopurine], for which the “leakage of chloroquine from liposomes loaded using this base, compared among three loading bases” value in data set [4] is listed as “least rapid”. The pKa (in general, the pH at which an ionisable group is half protonated) in data set [5] is 4.15. Further, the “solubility in water” value in data set [2] is listed as “very limited solubility in water”.

Take `N` [ammonia, reference compound]: the “log P” value in data set [1] was “approximately −0.3”.

As to `Nc1ccccc1` [aniline], the “leakage of chloroquine from liposomes loaded using this base, compared among three loading bases” value in data set [4] is reported as “most rapid”.

Regarding `CCN(CC)CCCC(C)Nc1ccnc2cc(Cl)ccc12` (stereo not drawn) [chloroquine, reference compound], the “leakage of loaded drug in the first 24 hours” value in data set [6] (0.133 M ammonium sulfate gradient liposomes (comparison)) is 18%. Further, the “leakage after 400 hours” value was 4-8% in data set [4] (DPPC:cholesterol liposomes loaded with a sulfate salt of pyridine); at most 1% in data set [4] (loaded with the eprodisate salts of both pyridine and 2-methoxypyridine).

In the case of `O=C1CC[C@@]2(O)[C@H]3Cc4ccc(O)c5c4[C@@]2(CCN3CC2CC2)[C@H]1O5` [naltrexone, reference compound], in data set [3] (setting [9]), the “initial release at 24 hours” value was “approximately 4%” and the “liposome contents released in 672 hours” value turned out to be 20%. In data set [3] (1.5 M pyridinium sulfate liposomes, over 672 hours), the release rate entry was “less than 1 % per day”. The “log P” value in data set [1] is recorded as 1.3. Besides, in data set [5], the pKa is 7.3.

For `NC(=O)c1cccnc1` [nicotinamide], in data set [7], the “oral dose with no toxic effects (as high as)” value is reported as at most 3 gm/day. The pKa in data set [5] was 3.25. The “concentration of solutions of the salt with most strong acids (as concentrated as)” value in data set [2] (pH 2-3 and room temperature) was at most 4 M.

For `CN1CC[C@]23c4c5ccc(O)c4O[C@H]2C(=O)CC[C@@]3(O)[C@H]1C5` [oxymorphone], the release time result in data set [8] (animal studies, egg phosphatidylcholine and cholesterol vesicles) is “approximately 24 hours”; in data set [8] (dipalmitoylphosphatidylcholine and cholesterol vesicles) it was “approximately 72 hours”.

Regarding `c1ccnnc1` [pyridazine], the “log P” value in data set [1] is listed as “approximately −0.7”. Further, in data set [2], the “solubility in water” value was “miscible with water at all ratios”.

Turning to `c1ccncc1` [pyridine], the “pyridine leakage from the liposomes” value in data set [6] (0.5 M pyridinium sulfate liposomes loaded with 2.5 or 5 μmol chloroquine) and in data set [6] (1 M pyridinium chloride liposomes loaded with 2.5 or 5 μmol chloroquine) was “initially very rapid” throughout. Moreover, the “pyridine loss from liposomes” value in data set [6] (0.5 M pyridinium sulfate liposomes loaded with 10 or 20 μmol chloroquine) and in data set [6] (1 M pyridinium chloride liposomes loaded with 10 or 20 μmol chloroquine) was “minimal” each time.

With `O=S(=O)(O)CCCS(=O)(=O)O.c1ccncc1.c1ccncc1` [pyridinium eprodisate], in data set [3] (setting [10]), the “release of naltrexone in 900 hours” value is listed as around 5%.

In the case of Methanesulfonate, in data set [3] (setting [10]), the “naltrexone release rate compared with sulfate and eprodisate salts” value is on record as “higher release rates”.
